Details: Liquid, Bellows volumetry

O [water]
Details	specific volume [m3/kg]
253.56 K, 298200 kPa	0.0008917
253.56 K, 325300 kPa	0.0008857
253.56 K, 349800 kPa	0.0008804
253.58 K, 223600 kPa	0.0009109
253.58 K, 223700 kPa	0.000911
253.58 K, 273300 kPa	0.0008978
253.58 K, 273600 kPa	0.0008977
253.58 K, 323500 kPa	0.000886
253.6 K, 249400 kPa	0.0009039
253.6 K, 298400 kPa	0.0008918
253.61 K, 248900 kPa	0.0009041
253.63 K, 349100 kPa	0.0008803
253.64 K, 223700 kPa	0.000911
253.64 K, 248300 kPa	0.0009041
253.65 K, 299600 kPa	0.000891
253.67 K, 349800 kPa	0.00088
253.68 K, 273300 kPa	0.0008975
253.69 K, 325300 kPa	0.0008852
253.83 K, 323300 kPa	0.0008861
253.83 K, 349500 kPa	0.0008803
253.86 K, 273400 kPa	0.0008977
253.86 K, 298200 kPa	0.0008918
253.87 K, 248600 kPa	0.0009042
253.9 K, 223600 kPa	0.000911
258.37 K, 198400 kPa	0.00092
258.37 K, 248400 kPa	0.0009059
258.38 K, 274900 kPa	0.0008992
258.4 K, 174000 kPa	0.0009274
258.41 K, 223300 kPa	0.0009127
258.45 K, 299600 kPa	0.0008933
258.46 K, 348900 kPa	0.0008821
258.52 K, 323300 kPa	0.0008877
258.52 K, 324100 kPa	0.0008879
258.53 K, 275300 kPa	0.0008991
258.54 K, 249300 kPa	0.0009057
258.54 K, 298500 kPa	0.0008935
258.55 K, 225000 kPa	0.0009123
258.58 K, 174100 kPa	0.0009275
258.58 K, 349500 kPa	0.0008815
258.59 K, 199300 kPa	0.0009197
258.59 K, 223500 kPa	0.0009124
258.6 K, 198200 kPa	0.0009199
258.6 K, 248400 kPa	0.0009053
258.6 K, 273300 kPa	0.0008992
258.6 K, 323400 kPa	0.0008873
258.6 K, 348800 kPa	0.0008828
258.61 K, 198500 kPa	0.0009196
258.61 K, 223400 kPa	0.0009121
258.61 K, 299200 kPa	0.0008928
258.64 K, 223300 kPa	0.0009126
258.64 K, 248500 kPa	0.0009056
258.65 K, 248300 kPa	0.0009047
258.65 K, 274500 kPa	0.0008977
258.65 K, 299500 kPa	0.0008914
258.66 K, 198400 kPa	0.0009199
258.67 K, 174000 kPa	0.0009274
258.68 K, 173500 kPa	0.0009277
258.68 K, 223300 kPa	0.0009118
258.7 K, 174400 kPa	0.0009274
258.75 K, 199500 kPa	0.000919
258.76 K, 173800 kPa	0.0009274
263.51 K, 299100 kPa	0.0008953
263.52 K, 350000 kPa	0.0008839
263.58 K, 298900 kPa	0.0008957
263.6 K, 249800 kPa	0.0009078
263.61 K, 248800 kPa	0.0009077
263.62 K, 149500 kPa	0.0009371
263.64 K, 198700 kPa	0.0009216
263.64 K, 248800 kPa	0.0009078
263.64 K, 298000 kPa	0.0008957
263.64 K, 349900 kPa	0.0008842
263.65 K, 198400 kPa	0.0009219
263.69 K, 149400 kPa	0.0009369
263.69 K, 198600 kPa	0.0009216
263.69 K, 349100 kPa	0.0008847
263.75 K, 149200 kPa	0.000937
268.42 K, 99500 kPa	0.0009558
268.47 K, 149200 kPa	0.0009384
268.47 K, 248700 kPa	0.0009095
268.47 K, 300200 kPa	0.000897
268.47 K, 348900 kPa	0.0008867
268.48 K, 199300 kPa	0.0009231
268.48 K, 298400 kPa	0.0008977
268.48 K, 349100 kPa	0.0008861
268.51 K, 149700 kPa	0.0009382
268.51 K, 249100 kPa	0.0009096
268.52 K, 149700 kPa	0.0009382
268.52 K, 198400 kPa	0.0009234
268.52 K, 249000 kPa	0.0009097
268.53 K, 198800 kPa	0.0009234
268.55 K, 99400 kPa	0.0009559
268.55 K, 298900 kPa	0.0008975
268.58 K, 99800 kPa	0.0009557
268.6 K, 348900 kPa	0.0008866
273.32 K, 69100 kPa	0.0009686
273.38 K, 298800 kPa	0.0008991
273.4 K, 349400 kPa	0.0008876
273.44 K, 149100 kPa	0.0009398
273.46 K, 99300 kPa	0.0009569
273.48 K, 69100 kPa	0.0009688
273.51 K, 199000 kPa	0.0009249
273.52 K, 69100 kPa	0.0009682
273.52 K, 149000 kPa	0.0009392
273.52 K, 249000 kPa	0.0009109
273.53 K, 99100 kPa	0.0009564
273.55 K, 198900 kPa	0.0009242
273.56 K, 98600 kPa	0.0009574
273.57 K, 149100 kPa	0.00094
273.57 K, 249100 kPa	0.0009117
273.63 K, 249300 kPa	0.000912
273.65 K, 298900 kPa	0.0008999

From the NIST ThermoML archive (doi:10.1021/je100083w)
